Measured values as given in PMC4113806, “Characterization of ACE Inhibitory Peptides from Mactra veneriformis Hydrolysate by Nano-Liquid Chromatography Electrospray Ionization Mass Spectrometry (Nano-LC-ESI-MS) and Molecular Docking” (Marine Drugs, 2014).
Several values for one entry are separate records, joined by “and”; a condition that tells them apart may be missing. Equal entries are not always repeated. Residues, ends and D or L forms follow the SMILES beside them. No end group written: not given here.

Molecular target: T1, angiotensin I-converting enzyme (ACE) (Oryctolagus cuniculus, UniProt P12822)
T1 construct: purchased Sigma Chemical Co. (St. Louis, MO, USA)
T1 sequence (P12822 34-1310): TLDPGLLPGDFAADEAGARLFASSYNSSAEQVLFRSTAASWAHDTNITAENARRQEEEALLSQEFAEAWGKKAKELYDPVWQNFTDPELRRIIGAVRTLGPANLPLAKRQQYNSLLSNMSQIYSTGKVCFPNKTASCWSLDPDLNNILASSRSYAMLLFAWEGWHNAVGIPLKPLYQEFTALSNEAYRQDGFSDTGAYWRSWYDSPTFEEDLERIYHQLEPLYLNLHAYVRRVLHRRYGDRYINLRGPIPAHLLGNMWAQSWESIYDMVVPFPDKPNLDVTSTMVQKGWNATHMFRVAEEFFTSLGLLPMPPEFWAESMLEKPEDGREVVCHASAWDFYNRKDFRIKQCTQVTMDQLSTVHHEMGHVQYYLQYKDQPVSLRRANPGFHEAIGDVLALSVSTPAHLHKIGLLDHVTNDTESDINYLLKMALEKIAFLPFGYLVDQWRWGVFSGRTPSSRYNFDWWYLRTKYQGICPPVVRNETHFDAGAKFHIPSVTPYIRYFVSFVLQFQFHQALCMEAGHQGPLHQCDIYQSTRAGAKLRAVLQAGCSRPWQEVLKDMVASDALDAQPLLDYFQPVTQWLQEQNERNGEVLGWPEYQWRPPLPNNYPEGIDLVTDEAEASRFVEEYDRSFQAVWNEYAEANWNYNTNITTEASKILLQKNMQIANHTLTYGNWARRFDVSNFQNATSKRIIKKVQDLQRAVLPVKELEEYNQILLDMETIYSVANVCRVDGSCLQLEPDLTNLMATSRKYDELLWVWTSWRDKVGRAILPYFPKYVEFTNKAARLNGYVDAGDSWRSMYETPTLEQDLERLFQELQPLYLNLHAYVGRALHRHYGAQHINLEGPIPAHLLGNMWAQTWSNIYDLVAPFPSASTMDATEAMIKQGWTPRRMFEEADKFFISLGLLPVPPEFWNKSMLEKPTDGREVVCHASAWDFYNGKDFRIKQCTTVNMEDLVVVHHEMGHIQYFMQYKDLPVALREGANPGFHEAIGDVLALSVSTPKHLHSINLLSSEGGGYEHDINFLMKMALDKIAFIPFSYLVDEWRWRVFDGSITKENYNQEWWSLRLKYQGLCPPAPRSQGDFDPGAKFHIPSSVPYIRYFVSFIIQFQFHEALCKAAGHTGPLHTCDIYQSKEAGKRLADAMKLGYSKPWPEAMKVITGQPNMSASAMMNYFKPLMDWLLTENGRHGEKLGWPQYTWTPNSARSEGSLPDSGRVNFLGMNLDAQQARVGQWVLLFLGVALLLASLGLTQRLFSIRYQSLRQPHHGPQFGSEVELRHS
Assay: ACE inhibitory activity assay (HHL substrate, HPLC detection of hippuric acid)
Format: biochemical
Conditions: chemically synthesized peptides
Description: ACE inhibitory activity was measured as previously described by Cushman and Cheung with minor modifications. A 10 μL sample solution (50 mM borate, pH 8.3) was added to 30 μL 2.5 mM HHL solution and incubated for 5 min at 37 °C. Subsequently, 20 μL of 0.1 U/mL ACE solution (50 mM borate, 0.3 M NaCl, pH 8.3) was added and the mixture was incubated at 37 °C for 60 min. The reaction was terminated by adding 70 μL of 1 M HCl. A blank sample of buffer alone was used as a negative control. Samples were filtered through a 0.45 μm nylon syringe filter and then separated on a C18 column (4.6 mm × 150 mm, 5 μm). HA and HHL were detected by absorbance at 228 nm. The column was eluted at a flow rate of 0.8 mL/min using a mobile phase composed of (A) 0.05% TFA in water and (B) 0.05% TFA in acetonitrile. The elution was carried out using a gradient of 10%–60% B in the first 10 min followed by 60%–10% B in the next 2 min. HA was quantified by integration of peak areas (A). Percent ACE inhibition was calculated according to the following equation: [drawing 1] (1)
The ACE inhibitory peptides identified by nano-LC MS/MS were synthesized using the solid phase method and purified by HPLC by GenScript Corporation (Nanjing, China). The ACE inhibitory activity of these chemically synthesized peptides was determined as described in Section 3.3.

IC50	Compound
77.9 µM	N=C(N)NCCC[C@H](NC(=O)[C@H](CCCCN)NC(=O)[C@@H](N)Cc1ccccc1)C(=O)O [FKR] (H-Phe-Lys-Arg-OH)
1270 µM	CC(C)C[C@H](NC(=O)[C@H](C)NC(=O)[C@@H](N)CC(C)C)C(=O)N[C@@H](CCCNC(=N)N)C(=O)O [LALR] (H-LALR-OH)
1090 µM	CC(C)C[C@H](N)C(=O)N[C@@H](CCC(=O)O)C(=O)NCC(=O)N[C@@H](CCCNC(=N)N)C(=O)O [LEGR] (H-LEGR-OH)
31.8 µM	CC(C)C[C@H](N)C(=O)N[C@@H](Cc1ccccc1)C(=O)N[C@@H](CCCNC(=N)N)C(=O)O [LFR] (H-Leu-Phe-Arg-OH)
367 µM	CC(C)C[C@H](NC(=O)[C@H](CCCCN)NC(=O)[C@@H](N)CC(C)C)C(=O)N1CCC[C@H]1C(=O)O [LKLP] (H-LKLP-OH)
1000 µM	CC(C)C[C@H](NC(=O)[C@H](CC(C)C)NC(=O)[C@@H](N)CC(C)C)C(=O)N[C@@H](CCCNC(=N)N)C(=O)O [LLLR] (H-LLLR-OH)
308 µM	CC(C)C[C@H](NC(=O)[C@@H](N)CC(C)C)C(=O)N[C@@H](CCCNC(=N)N)C(=O)N[C@@H](Cc1c[nH]cn1)C(=O)O [LLRH] (H-LLRH-OH)
158 µM	CC(C)C[C@H](N)C(=O)N[C@@H](CCCNC(=N)N)C(=O)O [LR]
24.6 µM	CC(C)C[C@H](N)C(=O)N[C@H](C(=O)N[C@@H](CCCCN)C(=O)N[C@@H](Cc1ccccc1)C(=O)O)C(C)C [LVKF] (H-LVKF-OH)
482 µM	NC(N)=NCCC[C@H](NC(=O)[C@@H](N)CCCN=C(N)N)C(=O)O [RR] (H-Arg-Arg-OH)
10.4 µM	CC(C)[C@H](N)C(=O)N[C@@H](CCCCN)C(=O)N[C@@H](Cc1ccccc1)C(=O)O [VKF] (H-Val-Lys-Phe-OH)
192 µM	HFEAMR [HFEAMR]
59.8 µM	LASPTM [LASPTM]
70.2 µM	LFVAAP [LFVAAP]
2690 µM	LGALPF [LGALPF]
233 µM	LGECGGR [LGECGGR]
222 µM	LLHSPP [LLHSPP]
686 µM	LLMPK [LLMPK]
17.5 µM	LYHVL [LYHVL]
92.4 µM	MPFLFK [MPFLFK]
41.3 µM	PLFPK [PLFPK]
100 µM	VFKAF [VFKAF]
4.07 µM and 4.1 µM	VVCVPW [VVCVPW]
